A word on the IC50: it is the point on the concentration scale where inhibition reaches its midpoint. High values mean a need for much substance, low ones inhibition by little substance.

IC50 data for 50 compounds are collected here from patent publication US11339177B2, “Heteroaryl compounds as inhibitors of necrosis, composition and method using the same” (ACCRO BIOSCIENCE INC., priority 2017, dated 2022).

SMILES strings stand for the structures.

For the assay, the system named is HT29 cells. The assay can be described thus: Necroptosis assay in HT29 cells (TNF-α, Smac mimetic, z-VAD; cell viability). The assay is classed as cell-based. The following applies: Homo sapiens, HT-29; TNF-α (40 ng/mL), Smacmimetic (100 nM), z-VAD (20 μM), 48 hours. As to the method:
Human colon cancer HT29 cells were used in a necroptosis assay. For this assay, HT29 cells were added to 96-well plates and then were pre-treated with 10 μM of the test compound for one hour. Then the cells were treated with TNF-α (40 ng/mL), Smacmimetic (100 nM) and z-VAD (20 μM) for 48 hours, and the viability of cells was quantified. DMSO pretreatment group was used as negative controls, Nec-1 pretreatment group was used as positive controls.
In Table 2, (1) “ND” indicates “not detected;” (2) Explanation for inhibition %: Taking Compound B14 as an example, its inhibition % was 30% (50 nM). It means that the when Compound B14 at a concentration of 50 nM was used in the HT29 Cell Assay, the necrosis of cells were inhibited at 30%.
Compound `CC(=O)Nc1nc2ccc(-c3cnc4c(c3)N(C(=O)OC3CCCCC3)CCO4)cc2s1` [Compound B2, Cyclohexyl-7-(2-acetamidobenzo[d]thiazol-6-yl)-2,3-dihydro-1H-pyrido[2,3-b][1,4]oxazine-1-carboxylate] showed a half-inhibitory concentration (IC50) of 2 nM.
For the compound `Nc1nc2cc(-c3cnc4c(c3)N(C(=O)OC3CCCCC3)CCO4)ccn2n1` [Compound B4], the IC50 was 90 nM.
Next, `CC(=O)Nc1nc2cc(-c3cnc4c(c3)N(C(=O)OC3CCCCC3)CCO4)ccn2n1` [Compound B5]: 42 nM; `Nc1nc2ccc(-c3cnc4c(c3)N(C(=O)OC3CCCCC3)CCO4)cn2n1` [Compound B6]: 90 nM; `CC(C)(C)OC(=O)Nc1cn2cc(-c3cnc4c(c3)N(C(=O)OC3CCCCC3)CCO4)ccc2n1` [Compound B10]: 5 nM.
Next, `CC(=O)Nc1cn2nc(-c3cnc4c(c3)N(C(=O)OC3CCCCC3)CCO4)ccc2n1` [Compound B12]: 11 nM.
`CC(C)(C)OC(=O)Nc1nc2ccc(-c3cnc4c(c3)N(C(=O)OC3CCOCC3)CCO4)cc2s1` [Compound B17, tetrahydro-2H-pyran-4-yl-7-(2-((tert-butoxycarbonyl)amino)benzo[d]thiazol-6-yl)-2,3-dihydro-1H-pyrido[2,3-b][1,4]oxazine-1-carboxylate] registered an IC50 of 26 nM.
The result for `CC(=O)Nc1nc2ccc(-c3cnc4c(c3)N(C(=O)OC3CCCCCC3)CCO4)cc2s1` [Compound B26] reads 3.2 nM.
`CC(=O)Nc1nc2ccc(-c3cnc4c(c3)N(C(=O)OC3COCCOC3)CCO4)cc2s1` [Compound B27]: the IC50 was 132 nM.
Next, `CC(=O)Nc1nc2ccc(-c3cnc4c(c3)N(C(=O)NC3CCCCC3)CCO4)cc2s1` [Compound B28]: 39 nM; `CC(=O)Nc1nc2ccc(-c3cnc4c(c3)N(C(=O)CC3CCCCC3)CCO4)cc2s1` [Compound B29]: 27 nM.
The result for `CC(=O)Nc1nc2ccc(-c3cnc4c(c3)N(C(=O)CC(C)(C)C)CCO4)cc2s1` [Compound B30] reads 186 nM; that for `CC(=O)Nc1nc2ccc(-c3cnc4c(c3)N(C(=O)OC3CCCCC3)CCO4)nc2s1` [Compound B31], 8.5 nM; that for `O=C(Nc1nc2ccc(-c3cnc4c(c3)N(C(=O)OC3CCCCC3)CCO4)nc2s1)C1CC1` [Compound B32], 0.9 nM.
Next, `O=C1CCn2c(nc3ccc(-c4cnc5c(c4)N(C(=O)OC4CCCCC4)CCO5)cc32)N1` [Compound B33, Cyclohexyl7-(2-oxo-1,2,3,4-tetrahydrobenzo[4,5]imidazo[1,2-a]pyrimidin-7-yl)-2,3-dihydro-1H-pyrido[2,3-b][1,4]oxazine-1-carboxylate]: 15 nM.
Take `O=C1Cn2c(nc3ccc(-c4cnc5c(c4)N(C(=O)OC4CCCCC4)CCO5)cc32)N1` [Compound B34]: the IC50 was 2300 nM.
Next, `CC(=O)Nc1nc2ccc(-c3cnc4c(c3)N(C(=O)CC3CCOCC3)CCO4)cc2s1` [Compound B36]: 530 nM.
As to `CC(=O)Nc1nc2ccc(-c3cnc4c(c3)N(C(=O)OC3CCCCC3)CC(=O)N4)cc2s1` [Compound B39, Cyclohexyl-7-(2-acetamidobenzo[d]thiazol-6-yl)-3-oxo-3,4-dihydropyrido[2,3-b]pyrazine-1(2H)-carboxylate], the concentration for half-maximal inhibition (IC50) was 2700 nM.
Next, `CC(=O)Nc1nc2ccc(-c3cnc4c(c3)N(C(=O)OC3CCCCC3)CCN4)cc2s1` [Compound B40, Cyclohexyl-7-(2-acetamidobenzo[d]thiazol-6-yl)-3,4-dihydropyrido[2,3-b]pyrazine-1(2H)-carboxylate]: 24 nM.
Next, `CC(=O)Nc1nc2ccc(-c3cnc4c(c3)N(C(=O)OC3CCOCC3)CCN4)cc2s1` [Compound B41]: 110 nM; `O=C(Nc1nc2ccc(-c3cnc4c(c3)N(C(=O)OC3CCOCC3)CCN4)cc2s1)C1CC1` [Compound B42]: 38 nM; `CC(=O)Nc1nc2ccc(-c3cnc4c(c3)N(C(=O)OC3CCCCC3)CCN4C)cc2s1` [Compound B43, cyclohexyl7-(2-acetamidobenzo[d]thiazol-6-yl)-4-methyl-3,4-dihydropyrido[2,3-b]pyrazine-1(2H)-carboxylate]: 13 nM.
Next, `CC(=O)Nc1nc2ccc(-c3cnc4c(c3)N(C(=O)OC3CCOCC3)CCN4C)cc2s1` [Compound B44]: 95 nM; `CN1CCN(C(=O)OC2CCOCC2)c2cc(-c3ccc4nc(NC(=O)C5CC5)sc4c3)cnc21` [Compound B45]: 18 nM; `CCN1CCN(C(=O)OC2CCCCC2)c2cc(-c3ccc4nc(NC(C)=O)sc4c3)cnc21` [Compound B46]: 70 nM.
Regarding `CC(=O)Nc1nc2ccc(-c3cnc4c(c3)N(C(=O)OC3CCCCC3)CCN4C3CC3)cc2s1` [Compound B47], the half-inhibitory concentration (IC50) came out at 157 nM.
In turn, `CC(=O)Nc1nc2ccc(-c3cnc4c(c3)N(C(=O)OC3CCCCC3)CCC4)cc2s1` [Compound B48, cyclohexyl-7-(2-acetamidobenzo[d]thiazol-6-yl)-3,4-dihydro-1,5-naphthyridine-1(2H)-carboxylate] came in with an IC50 of 2.4 nM.
Next, `CC(=O)Nc1nc2ccc(-c3cnc4c(c3)N(C(=O)OC3CCOCC3)CCC4)cc2s1` [Compound B49]: 11.4 nM; `O=C(Nc1nc2ccc(-c3cnc4c(c3)N(C(=O)OC3CCOCC3)CCC4)cc2s1)C1CC1` [Compound B50, tetrahydro-2H-pyran-4-yl-7-(2-(cyclopropanecarboxamido)benzo[d]thiazol-6-yl)-3,4-dihydro-1,5-naphthyridine-1(2H)-carboxylate]: 1.5 nM.
Next, `O=C(Nc1nc2ccc(-c3cnc4c(c3)N(C(=O)OC3CCOCC3)CCC4)nc2s1)C1CC1` [Compound B51]: 7.2 nM.
The result for `CC(=O)Nc1nc2ccc(-c3cnc4c(c3)N(C(=O)OC3CCCCC3)CC4)cc2s1` [Compound B52] reads 5 nM; that for `CC(=O)Nc1nc2ccc(-c3cnc4c(c3)N(C(=O)OC3CCOCC3)CC4)cc2s1` [Compound B53, tetrahydro-2H-pyran-4-yl6-(2-acetamidobenzo[d]thiazol-6-yl)-2,3-dihydro-1H-pyrrolo[3,2-b]pyridine-1-carboxylate], 4.7 nM.
Take `O=C(Nc1nc2ccc(-c3cnc4c(c3)N(C(=O)OC3CCOCC3)CC4)cc2s1)C1CC1` [Compound B54]: the concentration for half-maximal inhibition (IC50) turned out to be 2 nM.
In the case of `CC(=O)Nc1cn2cc(-c3cnc4c(c3)N(C(=O)OC3CCOCC3)CC4)ccc2n1` [Compound B55], half-maximal inhibition (IC50) required 49 nM.
Next, `O=C(Nc1cn2cc(-c3cnc4c(c3)N(C(=O)OC3CCOCC3)CC4)ccc2n1)C1CC1` [Compound B56]: 4.6 nM; `O=C(Nc1cn2nc(-c3cnc4c(c3)N(C(=O)OC3CCOCC3)CC4)ccc2n1)C1CC1` [Compound B58]: 17 nM.
Compound `O=C(Nc1nc2ccc(-c3cnc4c(c3)N(C(=O)OC3CCOCC3)CC4)nc2s1)C1CC1` [Compound B59, tetrahydro-2H-pyran-4-yl6-(2-(cyclopropanecarboxamido)thiazolo[5,4-b]pyridin-5-yl)-2,3-dihydro-1H-pyrrolo[3,2-b]pyridine-1-carboxylate] displayed a 50% inhibitory concentration (IC50) of 7 nM.
Next, `CC(=O)Nc1nc2ccc(-c3cnc4c(c3)N(C(=O)CC3CCOCC3)CC4)cc2s1` [Compound B61]: 39 nM.
The result for `O=C(Nc1nc2ccc(-c3cnc4c(c3)N(C(=O)CC3CCOCC3)CC4)cc2s1)C1CC1` [Compound B62, N-(6-(1-(2-(tetrahydro-2H-pyran-4-yl)acetyl)-2,3-dihydro-1H-pyrrolo[3,2-b]pyridin-6-yl)benzo[d]thiazol-2-yl)cyclopropanecarboxamide] reads 1.9 nM; that for `O=C(Nc1cn2cc(-c3cnc4c(c3)N(C(=O)CC3CCOCC3)CC4)ccc2n1)C1CC1` [Compound B64], 53 nM.
Compound `O=C(Nc1nc2ccc(-c3cnc4c(c3)N(C(=O)OC3CCNCC3)CC4)cc2s1)C1CC1` [Compound B67, Piperidin-4-yl-6-(2-(cyclopropanecarboxamido)benzo[d]thiazol-6-yl)-2,3-dihydro-1H-pyrrolo[3,2-b]pyridine-1-carboxylate] yielded a 50% inhibitory concentration (IC50) of 300 nM.
The result for `CNC(=O)Nc1nc2ccc(-c3cnc4c(c3)N(C(=O)OC3CCOCC3)CC4)nc2s1` [Compound B71] reads 33.4 nM; that for `CNC(=O)Nc1cn2cc(-c3cnc4c(c3)N(C(=O)OC3CCOCC3)CC4)ccc2n1` [Compound B72], 48.1 nM.
Compound `CNC(=O)Nc1nc2ccc(-c3cnc4c(c3)N(C(=O)OCC3CC3)CC4)cc2s1` [Compound B73] came in with a 50% inhibitory concentration (IC50) of 1.8 nM.
The result for `CNC(=O)Nc1nc2ccc(-c3cnc4c(c3)N(C(=O)OCC3CC3)CC4)nc2s1` [Compound B74] reads 23 nM; that for `CNC(=O)Nc1cn2cc(-c3cnc4c(c3)N(C(=O)OCC3CC3)CC4)ccc2n1` [Compound B75], 19 nM.
The result for `O=C(Nc1nc2ccc(-c3cnc4c(c3)N(C(=O)OCC3CC3)CC4)nc2s1)C1CC1` [Compound B76] reads 2.4 nM; that for `O=C(Nc1cn2cc(-c3cnc4c(c3)N(C(=O)OCC3CC3)CC4)ccc2n1)C1CC1` [Compound B77], 1.7 nM.
The result for `O=C(Nc1nc2ccc(-c3cnc4c(c3)N(C(=O)OC3COC3)CC4)cc2s1)C1CC1` [Compound B78, Oxetan-3-yl-6-(2-(cyclopropanecarboxamido)benzo[d]thiazol-6-yl)-2,3-dihydro-1H-pyrrolo[3,2-b]pyridine-1-carboxylate] reads 6.7 nM; that for `CNCC(C)OC(=O)N1CCc2ncc(-c3ccc4nc(NC(=O)C5CC5)sc4c3)cc21` (centres unmarked) [Compound B79], 16 nM.
